Among the data in PubChem BioAssay AID328 (DTP/NCI, 2004) are T/C values, retold here.

The experiment deals with BDF1 mice, P388 leukemia ip, median survival T/C. The experiment in a line: NCI In Vivo Anticancer Drug Screen. Data for tumor model P388 Leukemia (intraperitoneal) in B6D2F1 (BDF1) mice. To be noted: endpoint: median survival time, higher = longer survival. An outline of the steps: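 Steps: implant the tumour, treat one group with compound and another with vehicle, record survival, then divide treated by control.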

The mark [1] stands for this setting: dose: 25.0 mg/kg/injection, schedule: Q01DX009 (ip), vehicle: saline with Tween-80.
The mark [2] stands for this setting: dose: 50.0 mg/kg/injection, schedule: Q01DX009 (ip), vehicle: saline with Tween-80.
[3] abbreviates: dose: 100.0 mg/kg/injection, schedule: Q01DX009 (ip), vehicle: saline with Tween-80.
Where [4] appears, read: dose: 100.0 mg/kg/injection, schedule: Q04DX003 (ip), vehicle: saline with Tween-80.
Setting [5] is: dose: 200.0 mg/kg/injection, schedule: Q01DX009 (ip), vehicle: saline with Tween-80.
Where [6] appears, read: dose: 200.0 mg/kg/injection, schedule: Q04DX003 (ip), vehicle: saline with Tween-80.
Setting [7] is: dose: 400.0 mg/kg/injection, schedule: Q01DX009 (ip), vehicle: saline with Tween-80.
Setting [8] is: dose: 400.0 mg/kg/injection, schedule: Q04DX003 (ip), vehicle: saline with Tween-80.
[9] abbreviates: dose: 12.5 mg/kg/injection, schedule: Q01DX009 (ip), vehicle: saline with Tween-80.
[10] abbreviates: dose: 25.0 mg/kg/injection, schedule: Q04DX003 (ip), vehicle: saline with Tween-80.

Several values for one entry are separate records, joined by “and”; a condition that tells them apart may be missing. Equal entries are not always repeated. Inconclusive results and toxic doses are left out.

Take `COc1cc2c(cc1OC)C1CCc3cc4c(cc3C1N=C2)OCO4` (centres undefined): the T/C runs as follows: (dose: 20.0 mg/kg/injection, schedule: Q01DX009 (ip), vehicle: saline) 100 % of control; (dose: 40.0 mg/kg/injection, schedule: Q01DX009 (ip), vehicle: saline) 105 % of control; (dose: 80.0 mg/kg/injection, schedule: Q01DX009 (ip), vehicle: saline) 105 % of control; (dose: 120.0 mg/kg/injection, schedule: Q01DX009 (ip), vehicle: saline) 105 % of control; (dose: 240.0 mg/kg/injection, schedule: Q01DX009 (ip), vehicle: saline) 100 % of control.

In the case of `CC(C)C(C(=O)c1ccccc1)c1ccccc1` (centres undefined), the T/C was 95 % of control under setting [1]; 109 % of control under setting [2]; 100 % of control under setting [3]; 100 % of control under setting [4]; 100 % of control under setting [5]; 118 % of control under setting [6]. Also, the T/C runs as follows: under setting [7], 100 % of control; under setting [8], 100 % of control.

Regarding `CCCCCCCCCCCCCCCC(=O)N(c1ccc(NC(=O)Nc2ccc(N(C(=O)CCCCCCCCCCCCCCC)C(C)CCCN(CC)CC)cc2)cc1)C(C)CCCN(CC)CC` (centres undefined), the T/C runs as follows: under setting [9], 94 % of control; under setting [1], 87 % of control; under setting [2], 97 % of control; under setting [4], 93 % of control; under setting [6], 99 % of control; under setting [8], 102 % of control.

On to `CCCCCCCCSC(=S)SCC(=O)O`, for which the T/C was 100 % of control under setting [2] and 100 % of control under setting [3].

In the case of `CCOC(=O)c1ccc(N)c(C(O)(C(F)(F)F)C(F)(F)F)c1`, the T/C reads like this: under setting [3], 90 % of control; under setting [5], 100 % of control; under setting [7], 104 % of control.

With `O=C1CCS2(CCC(=O)O2)O1`, the T/C was 98 % of control (dose: 50.0 mg/kg/injection, schedule: Q01DX009 (ip), vehicle: saline); 94 % of control (dose: 100.0 mg/kg/injection, schedule: Q01DX009 (ip), vehicle: saline); 98 % of control (dose: 200.0 mg/kg/injection, schedule: Q01DX009 (ip), vehicle: saline).

Consider `CC(C)(C)CC(C)(C)c1ccc(OCCOS(=O)(=O)c2cccc([N+](=O)[O-])c2)cc1`, for which the T/C by setting is: under setting [2], 109 % of control; under setting [3], 95 % of control; under setting [5], 118 % of control.

On to `COc1cc(C=Nc2ccc(C(=O)O)cc2)ccc1N(CCCl)CCCl`, for which the T/C reads like this: (dose: 1.3 mg/kg/injection, schedule: Q04DX003 (ip), vehicle: saline with Tween-80) 115 % of control; (dose: 2.0 mg/kg/injection, schedule: Q04DX003 (ip), vehicle: saline with Tween-80) 111 % of control; (dose: 3.0 mg/kg/injection, schedule: Q04DX003 (ip), vehicle: saline with Tween-80) 162 % of control; (dose: 7.0 mg/kg/injection, schedule: Q04DX003 (ip), vehicle: saline with Tween-80) 150 % of control and 158 % of control; (dose: 11.0 mg/kg/injection, schedule: Q04DX003 (ip), vehicle: saline with Tween-80) 170 % of control; under setting [9], 195 % of control. In addition, the T/C (dose: 16.0 mg/kg/injection, schedule: Q04DX003 (ip), vehicle: saline with Tween-80) is 187 % of control; the T/C (dose: 16.5 mg/kg/injection, schedule: Q04DX003 (ip), vehicle: saline with Tween-80) was 169 % of control; the T/C under setting [10] was 196 % of control; the T/C (dose: 37.5 mg/kg/injection, schedule: Q04DX003 (ip), vehicle: saline with Tween-80) is 107 % of control.

With `CC(=O)Nc1ccc(S(=O)(=O)Oc2ccc([N+](=O)[O-])cc2)cc1`, the T/C is 96 % of control (dose: 1.56 mg/kg/injection, schedule: Q01DX009 (ip), vehicle: saline); 112 % of control (dose: 3.12 mg/kg/injection, schedule: Q01DX009 (ip), vehicle: saline); 107 % of control (dose: 6.25 mg/kg/injection, schedule: Q01DX009 (ip), vehicle: saline); 93 % of control (dose: 12.5 mg/kg/injection, schedule: Q01DX009 (ip), vehicle: saline); 92 % of control and 103 % of control (dose: 25.0 mg/kg/injection, schedule: Q01DX009 (ip), vehicle: saline).

Consider `CCCN1CSC(=S)N(Cc2ccccc2)C1`, for which the T/C under setting [3] is 90 % of control; the T/C under setting [4] is 95 % of control; the T/C under setting [5] was 100 % of control; the T/C under setting [6] is 95 % of control; the T/C under setting [7] is 90 % of control; the T/C under setting [8] was 95 % of control.

For the compound `O=P(Oc1ccc(OP(=O)(N2CC2)N2CC2)cc1)(N1CC1)N1CC1`, the T/C is, setting by setting: (dose: 50.0 mg/kg/injection, schedule: Q04DX003 (ip), vehicle: saline) 168 % of control; (dose: 75.0 mg/kg/injection, schedule: Q04DX003 (ip), vehicle: saline) 177 % of control; (dose: 115.0 mg/kg/injection, schedule: Q04DX003 (ip), vehicle: saline with Tween-80) 190 % of control; (dose: 175.0 mg/kg/injection, schedule: Q04DX003 (ip), vehicle: saline with Tween-80) 254 % of control; (dose: 264.0 mg/kg/injection, schedule: Q04DX003 (ip), vehicle: saline with Tween-80) 150 % of control; under setting [8], 254 % of control.

For `Nc1ccc(CCc2ccccc2)cc1`, the T/C is, setting by setting: under setting [9], 122 % of control; under setting [1], 100 % of control; under setting [2], 109 % of control; (dose: 56.25 mg/kg/injection, schedule: Q04DX003 (ip), vehicle: saline with Tween-80) 108 % of control; (dose: 75.0 mg/kg/injection, schedule: Q01DX009 (ip), vehicle: saline with Tween-80) 118 % of control; (dose: 112.5 mg/kg/injection, schedule: Q04DX003 (ip), vehicle: saline with Tween-80) 112 % of control.

As for `Cc1ccc(C(=O)N(N)C2CCCCC2)cc1`, the T/C under setting [2] is 92 % of control.

As for `C[Si](C)(C)Nc1ncnc2c1ncn2[Si](C)(C)C`, the T/C under setting [3] is 91 % of control.

`CC(C)c1ccc2c(c1)CC[C@H]1[C@](C)(CN=C(N)CCl)CCC[C@]21C`: the T/C by setting is: (dose: 1.56 mg/kg/injection, schedule: Q01DX009 (ip), vehicle: Klucel (hydroxypropylcellulose) (HPC)) 110 % of control; (dose: 3.13 mg/kg/injection, schedule: Q01DX009 (ip), vehicle: Klucel (hydroxypropylcellulose) (HPC)) 112 % of control; (dose: 6.25 mg/kg/injection, schedule: Q01DX009 (ip), vehicle: Klucel (hydroxypropylcellulose) (HPC)) 114 % of control.

Turning to `COc1cccnc1/C=N/NC(N)=S`, the T/C reads like this: (dose: 1.5 mg/kg/injection, schedule: Q01DX009 (ip), vehicle: saline with Tween-80) 115 % of control; (dose: 3.0 mg/kg/injection, schedule: Q01DX009 (ip), vehicle: saline with Tween-80) 118 % of control; (dose: 5.0 mg/kg/injection, schedule: Q01DX009 (ip), vehicle: saline with Tween-80) 157 % of control; (dose: 8.0 mg/kg/injection, schedule: Q01DX009 (ip), vehicle: saline with Tween-80) 158 % of control; (dose: 12.0 mg/kg/injection, schedule: Q01DX009 (ip), vehicle: saline with Tween-80) 158 % of control and 175 % of control.

As to `CC(=O)OC1OC(COC(c2ccccc2)(c2ccccc2)c2ccccc2)C(OCc2ccccc2)C(OCc2ccccc2)C1OC(C)=O` (centres undefined), the T/C (dose: 21.9 mg/kg/injection, schedule: Q01DX009 (ip), vehicle: other) is 95 % of control; the T/C (dose: 43.8 mg/kg/injection, schedule: Q01DX009 (ip), vehicle: other) was 98 % of control; the T/C (dose: 87.5 mg/kg/injection, schedule: Q01DX009 (ip), vehicle: other) was 93 % of control; the T/C (dose: 175.0 mg/kg/injection, schedule: Q01DX009 (ip), vehicle: other) is 88 % of control; the T/C (dose: 350.0 mg/kg/injection, schedule: Q01DX009 (ip), vehicle: other) was 88 % of control.

`CN1Cc2c(ccc3c2OCO3)[C@@H]2[C@H](O)Cc3cc4c(cc3[C@@H]21)OCO4`: the T/C (dose: 50.0 mg/kg/injection, schedule: Q01DX010 (ip), vehicle: saline) is 100 % of control and the T/C (dose: 100.0 mg/kg/injection, schedule: Q01DX010 (ip), vehicle: saline) is 100 % of control.

With `NSc1ccc([N+](=O)[O-])cc1`, the T/C (dose: 100.0 mg/kg/injection, schedule: Q01DX001 (ip), vehicle: other) is 109 % of control.

In the case of `C=CC(CO)N1CC1` (centres undefined), the T/C (dose: 6.25 mg/kg/injection, schedule: Q04DX003 (ip), vehicle: saline with Tween-80) is 100 % of control; the T/C (dose: 12.5 mg/kg/injection, schedule: Q04DX003 (ip), vehicle: saline with Tween-80) is 112 % of control; the T/C under setting [10] was 104 % of control.
